Assay results as given in patent publication US9187464B2, “TRPV4 antagonists” (GlaxoSmithKline Intellectual Property (No. 2) Limited, priority 2011, dated 2015).
Where a name gives a salt, the structure may show the parent alone.

Target: T1, human TRPV4 (Homo sapiens, UniProt Q9HBA0)
T1 construct: expressed in transfected cells; host or cells: HEK-293-MSR-II cells transduced with 1% BacMam virus
Experiment: Ligand-gated assay (Fluo4 calcium, FLIPR; inhibition of agonist-induced activation)
Assay type: cell-based
Conditions: HEK-293-MSR-II cells transduced with BacMam human TRPV4; agonist at EC80
Description: TRP channel activation/opening results in an influx of divalent and monovalent cations including calcium. The resulting changes in intracellular calcium were monitored using a calcium selective fluorescent dye Fluo4 (MDS Analytical Technologies). Dye loaded cells were initially exposed to test compound to verify a lack of agonist activity. Cells were subsequently activated by addition of an agonist and inhibition of the agonist-induced activation was recorded. Human embryonic kidney 293 cells stably expressing the macrophage scavenger receptor class II (HEK-293-MSR-II) and transduced with 1% BacMam (J. P. Condreay, S. M. Witherspoon, W. C. Clay and T. A. Kost, Proc Natl Acad Sci 96 (1999), pp. 127-132) virus expressing the human TRPV4 gene were plated at 15000 cells/well in a volume of 50 μL in a 384 well poly-D lysine coated plate. Cells were incubated for 24 hours at 37 degrees and 5% CO2. Media was then aspirated using a Tecan Plate-washer and replaced with 20 μL of dye loading buffer: HBSS, 500 uM Brilliant Black (MDS Analytical Technologies), 2 uM Fluo-4. Dye loaded plates were then incubated in the dark at room temperature for 1-1.5 hours. 10 μL of test compound diluted in HBSS (HBSS with 1.5 mM Calcium Chloride, 1.5 mM Magnesium Chloride and 10 mM HEPES. pH 7.4), +0.01% Chaps was added to the plate, incubated for 10 min at room temperature in the dark and then 10 μL of agonist was added at a final concentration equal to the agonist EC80. Calcium release was measured using the FLIPRtetra (MDS Analytical Technologies) or FLIPR384 (MDS Analytical Technologies).
IC50 between 0.1-10 nM (+++), >10-50 nM (++), >50-500 nM (+).

T1 sequence (Q9HBA0 whole entry): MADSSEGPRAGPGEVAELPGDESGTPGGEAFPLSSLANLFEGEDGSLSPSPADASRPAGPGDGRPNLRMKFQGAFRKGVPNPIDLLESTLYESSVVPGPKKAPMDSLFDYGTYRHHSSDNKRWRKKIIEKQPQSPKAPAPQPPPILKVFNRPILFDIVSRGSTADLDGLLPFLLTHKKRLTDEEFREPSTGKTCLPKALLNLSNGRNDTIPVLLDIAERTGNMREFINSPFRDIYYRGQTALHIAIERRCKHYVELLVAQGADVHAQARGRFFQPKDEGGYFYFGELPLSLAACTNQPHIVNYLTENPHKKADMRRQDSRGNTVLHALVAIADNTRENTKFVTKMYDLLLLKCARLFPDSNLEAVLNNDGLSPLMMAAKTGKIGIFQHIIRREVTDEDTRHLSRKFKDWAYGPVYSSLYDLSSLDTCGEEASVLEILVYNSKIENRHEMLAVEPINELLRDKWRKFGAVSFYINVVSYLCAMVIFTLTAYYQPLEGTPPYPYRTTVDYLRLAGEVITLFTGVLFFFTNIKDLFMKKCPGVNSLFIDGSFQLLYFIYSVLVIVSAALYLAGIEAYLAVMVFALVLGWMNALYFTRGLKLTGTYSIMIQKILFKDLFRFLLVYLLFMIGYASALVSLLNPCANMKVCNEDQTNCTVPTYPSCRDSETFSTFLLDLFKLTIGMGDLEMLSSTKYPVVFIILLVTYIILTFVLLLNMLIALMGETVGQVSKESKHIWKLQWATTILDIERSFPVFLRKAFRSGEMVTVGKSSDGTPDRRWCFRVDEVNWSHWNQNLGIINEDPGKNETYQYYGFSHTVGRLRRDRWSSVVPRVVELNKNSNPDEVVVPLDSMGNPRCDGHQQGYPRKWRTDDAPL

| SMILES | IC50 |
| --- | --- |
| N#Cc1ccc2ncn(C[C@H]3CCC[C@]4(C3)CN(Cc3cn(-c5cccc(F)c5)nn3)C(=O)O4)c2c1 [Example 94, 1-[((5S,7S)-3-{[1-(3-fluorophenyl)-1H-1,2,3-triazol-4-yl]methyl}-2-oxo-1-oxa-3-azaspiro[4.5]dec-7-yl)methyl]-1H-benzimidazole-6-carbonitrile] | 10 to 50 nM |
| Cc1nc(C(F)(F)F)cnc1N1C[C@@]2(CCC[C@H](Cn3cnc4ccc(C#N)cc43)C2)OC1=O [Example 131, 1-(((5S,7S)-3-(3-methyl-5-(trifluoromethyl)pyrazin-2-yl)-2-oxo-1-oxa-3-azaspiro[4.5]decan-7-yl)methyl)-1H-benzo[d]imidazole-6-carbonitrile] | 50 to 500 nM |
| CC(C)(CN1C[C@@]2(CCC[C@H](Cn3cnc4ccc(C#N)cc43)C2)OC1=O)c1nnc(-c2ccccc2)o1 [Example 5, 1-({(5S,7S)-3-[2-Methyl-2-(5-phenyl-1,3,4-oxadiazol-2-yl)propyl]-2-oxo-1-oxa-3-azaspiro[4.5]dec-7-yl}methyl)-1H-benzimidazole-6-carbonitrile] | 0.1 to 10 nM |
| COc1cc(C)c(N2C[C@@]3(CCC[C@H](Cn4cnc5ccc(C#N)cc54)C3)OC2=O)cn1 [Example 111, 1-({(5S,7S)-3-[4-methyl-6-(methyloxy)-3-pyridinyl]-2-oxo-1-oxa-3-azaspiro[4.5]dec-7-yl}methyl)-1H-benzimidazole-6-carbonitrile] | 10 to 50 nM |
| N#Cc1ccc2ncn(C[C@H]3CCC[C@]4(C3)CN(Cc3cn(-c5cccc(C(F)(F)F)c5)nn3)C(=O)O4)c2c1 [Example 93, 1-{[(5S,7S)-2-oxo-3-({1-[3-(trifluoromethyl)phenyl]-1H-1,2,3-triazol-4-yl}methyl)-1-oxa-3-azaspiro[4.5]dec-7-yl]methyl}-1H-benzimidazole-6-carbonitrile] | 0.1 to 10 nM |
| C[C@]1(Cn2cnc3ccc(C#N)cc32)CCC[C@@]2(CN(c3cnc(C(F)(F)F)cn3)C(=O)O2)C1 [Example 115, 1-(((5S,7S)-7-methyl-2-oxo-3-(5-(trifluoromethyl)pyrazin-2-yl)-1-oxa-3-azaspiro[4.5]decan-7-yl)methyl)-1H-benzo[d]imidazole-6-carbonitrile] | 0.1 to 10 nM |
| C[C@]1(Cn2cnc3ccc(C#N)cc32)CCC[C@@]2(CN(c3cnccc3C(F)(F)F)C(=O)O2)C1 [Example 144, 1-(((5S,7S)-7-methyl-2-oxo-3-(4-(trifluoromethyl)pyridin-3-yl)-1-oxa-3-azaspiro[4.5]decan-7-yl)methyl)-1H-benzo[d]imidazole-6-carbonitrile] | 0.1 to 10 nM |
| COc1ccc(-c2csc(CN3C[C@@]4(CCC[C@H](Cn5cnc6ccc(C#N)cc65)C4)OC3=O)n2)cc1C [Example 70, 1-{[(5S,7S)-3-({4-[3-methyl-4-(methyloxy)phenyl]-1,3-thiazol-2-yl}methyl)-2-oxo-1-oxa-3-azaspiro[4.5]dec-7-yl]methyl}-1H-benzimidazole-6-carbonitrile] | 0.1 to 10 nM |
| CC(C)(O)c1ccc(N2C[C@@]3(CCC[C@](C)(Cn4cnc5ccc(C#N)cc54)C3)OC2=O)nc1 [Example 167, 1-(((5S,7S)-3-(5-(2-hydroxypropan-2-yl)pyridin-2-yl)-7-methyl-2-oxo-1-oxa-3-azaspiro[4.5]decan-7-yl)methyl)-1H-benzo[d]imidazole-6-carbonitrile] | 0.1 to 10 nM |
| CCOc1cc(C)c(N2C[C@@]3(CCC[C@H](Cn4cnc5cc(F)c(C#N)cc54)C3)OC2=O)cn1 [Example 125, 1-(((5S,7S)-3-(6-ethoxy-4-methylpyridin-3-yl)-2-oxo-1-oxa-3-azaspiro[4.5]decan-7-yl)methyl)-5-fluoro-1H-benzo[d]imidazole-6-carbonitrile] | 0.1 to 10 nM |
| CC(C)(CN1C[C@@]2(CCC[C@H](Cn3cnc4ccc(C#N)cc43)C2)OC1=O)c1nc(C2CCCC2)no1 [Example 77, 1-({(5S,7S)-3-[2-(3-cyclopentyl-1,2,4-oxadiazol-5-yl)-2-methylpropyl]-2-oxo-1-oxa-3-azaspiro[4.5]dec-7-yl}methyl)-1H-benzimidazole-6-carbonitrile] | 0.1 to 10 nM |
| CC(C)n1cc(CN2C[C@@]3(CCC[C@](C)(Cn4cnc5ccc(C#N)cc54)C3)OC2=O)nn1 [Example 104, 1-[((5S,7S)-7-methyl-3-{[1-(1-methylethyl)-1H-1,2,3-triazol-4-yl]methyl}-2-oxo-1-oxa-3-azaspiro[4.5]dec-7-yl)methyl]-1H-benzimidazole-6-carbonitrile] | 50 to 500 nM |
| CC(C)(C)c1noc(N2C[C@@]3(CCC[C@](C)(Cn4cnc5ccc(C#N)cc54)C3)OC2=O)c1F [Example 44, 1-(((5S,7S)-3-(3-(tert-butyl)-4-fluoroisoxazol-5-yl)-7-methyl-2-oxo-1-oxa-3-azaspiro[4.5]decan-7-yl)methyl)-1H-benzo[d]imidazole-6-carbonitrile] | 0.1 to 10 nM |
| N#Cc1ccc2ncn(C[C@H]3CCC[C@]4(C3)CN(Cc3cn(-c5ccnc(C(F)(F)F)c5)nn3)C(=O)O4)c2c1 [Example 100, 1-{[(5S,7S)-2-oxo-3-({1-[2-(trifluoromethyl)-4-pyridinyl]-1H-1,2,3-triazol-4-yl}methyl)-1-oxa-3-azaspiro[4.5]dec-7-yl]methyl}-1H-benzimidazole-6-carbonitrile] | 0.1 to 10 nM |
| N#Cc1ccc2ncn(C[C@H]3CCC[C@]4(C3)CN(Cc3cncc(-c5ccccc5)c3)C(=O)O4)c2c1 [Example 72, 1-({(5S,7S)-2-oxo-3-[(5-phenyl-3-pyridinyl)methyl]-1-oxa-3-azaspiro[4.5]dec-7-yl}methyl)-1H-benzimidazole-6-carbonitrile trifluoroacetate] | 50 to 500 nM |
| CCOC(C)c1noc(C(C)(C)CN2C[C@@]3(CCC[C@H](Cn4cnc5ccc(C#N)cc54)C3)OC2=O)n1 (stereo partly drawn) [Example 28, 1-{[(5S,7S)-3-(2-{3-[1-(Ethyloxy)ethyl]-1,2,4-oxadiazol-5-yl}-2-methylpropyl)-2-oxo-1-oxa-3-azaspiro[4.5]dec-7-yl]methyl}-1H-benzimidazole-6-carbonitrile] | 0.1 to 10 nM |
| N#Cc1cc(F)cc(-n2cc(CN3CC4(CCC[C@H](Cn5cnc6ccc(C#N)cc65)C4)OC3=O)nn2)c1 (stereo in doubt) [Example 103, 1-[((5S,7S)-3-{[1-(3-cyano-5-fluorophenyl)-1H-1,2,3-triazol-4-yl]methyl}-2-oxo-1-oxa-3-azaspiro[4.5]dec-7-yl)methyl]-1H-benzimidazole-6-carbonitrile] | 0.1 to 10 nM |
| CC(C)(CN1C[C@@]2(CCC[C@H](Cn3cnc4ccc(C#N)cc43)C2)OC1=O)c1nc(C(F)(F)F)no1 [Example 80, 1-[((5S,7S)-3-{2-methyl-2-[3-(trifluoromethyl)-1,2,4-oxadiazol-5-yl]propyl}-2-oxo-1-oxa-3-azaspiro[4.5]dec-7-yl)methyl]-1H-benzimidazole-6-carbonitrile] | 0.1 to 10 nM |
| CCOc1cc(C)c(N2C[C@@]3(CCC[C@H](Cn4cnc5ccc(C#N)cc54)C3)OC2=O)cn1 [Example 23, 1-(((5S,7S)-3-(6-Ethoxy-4-methylpyridin-3-yl)-2-oxo-1-oxa-3-azasbiro[4.5]decan-7-yl)methyl)-1H-benzo[d]imidazole-6-carbonitrile] | 10 to 50 nM |
| N#Cc1ccc2ncn(C[C@H]3CCC[C@]4(C3)CN(Cc3cn(C5CCCCC5)nn3)C(=O)O4)c2c1 [Example 97, 1-({(5S,7S)-3-[(1-cyclohexaneyl-1H-1,2,3-triazol-4-yl)methyl]-2-oxo-1-oxa-3-azaspiro[4.5]dec-7-yl}methyl)-1H-benzimidazole-6-carbonitrile] | 10 to 50 nM |
| CN(C)c1ncc(N2C[C@@]3(CCC[C@](C)(Cn4cnc5ccc(C#N)cc54)C3)OC2=O)cn1 [Example 145, 1-(((5S,7S)-3-(2-(dimethylamino)pyrimidin-5-yl)-7-methyl-2-oxo-1-oxa-3-azaspiro[4.5]decan-7-yl)methyl)-1H-benzo[d]imidazole-6-carbonitrile] | 10 to 50 nM |
| COC(C)c1noc(C(C)(C)CN2C[C@@]3(CCC[C@H](Cn4cnc5ccc(C#N)cc54)C3)OC2=O)n1 (stereo partly drawn) [Example 154, 1-{[(5S,7S)-3-(2-methyl-2-{3-[1-(methyloxy)ethyl]-1,2,4-oxadiazol-5-yl}propyl)-2-oxo-1-oxa-3-azaspiro[4.5]dec-7-yl]methyl}-1H-benzimidazole-6-carbonitrile] | 0.1 to 10 nM |
| N#Cc1ccc2ncn(C[C@H]3CCC[C@]4(C3)CN(Cc3csc5ccccc35)C(=O)O4)c2c1 (stereo in doubt) [Example 62, 1-{[3-(1-benzothien-3-ylmethyl)-2-oxo-1-oxa-3-azaspiro[4.5]dec-7-yl]methyl}-1H-benzimidazole-6-carbonitrile] | 10 to 50 nM |
| N#Cc1ccc2ncn(C[C@H]3CCC[C@]4(C3)CN(Cc3nnc(-c5ccccc5)[nH]3)C(=O)O4)c2c1 [Example 71, 1-({(5S,7S)-2-oxo-3-[(3-phenyl-1H-1,2,4-triazol-5-yl)methyl]-1-oxa-3-azaspiro[4.5]dec-7-yl}methyl)-1H-benzimidazole-6-carbonitrile] | 50 to 500 nM |
